The source of these data is article PMC6901909, “Synergy Pattern of Short Cationic Antimicrobial Peptides Against Multidrug-Resistant Pseudomonas aeruginosa” (Frontiers in Microbiology, 2019).

Molecules are shown by their SMILES. In brackets after ≈: the same amount, converted by molar mass. Where two headings read alike, the source gives them in different places. Peptide text beside a SMILES is read from it.

The subject of experiment [1] is MDR P. aeruginosa PA 910. The experiment can be described thus: microbe, parasite or virus in culture. As to conditions: for MIC: Pseudomonas aeruginosa. The class given is cell-based, Pseudomonas aeruginosa. Put shortly: (§1)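 Clinical and municipal waste-water MDR isolates were tested by broth microdilution in Mueller-Hinton broth with twofold serial dilutions at 2–5 10^5 CFU/ml. Plates were incubated 18 h at 37°C in polypropylene plates. MIC was read visually.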

For experiment [2], the system named is MDR P. aeruginosa PA253. Briefly: microbe, parasite or virus in culture. The class given is cell-based, Pseudomonas aeruginosa. As to conditions: microdilution, Mueller-Hinton broth, 18 h at 37°C, read visually; for MIC: Pseudomonas aeruginosa, conventional antibiotics, 2–5 10^5 CFU/ml, at least three repeats (n = 3). In short, it runs like this:
as §1
Background: In broth dilution the organism is exposed to a series of concentrations in liquid medium.

For experiment [3], the system named is MDR P. aeruginosa PA 915. The experiment can be described thus: microbe, parasite or virus in culture. The experiment is classed as cell-based, Pseudomonas aeruginosa. As to conditions: Pseudomonas aeruginosa; conventional antibiotics; microdilution, Mueller-Hinton broth, 2–5 10^5 CFU/ml, 18 h at 37°C, read visually; at least three repeats (n = 3). Put shortly: as §1

Experiment [4] relates to MDR P. aeruginosa PA 923. The experiment can be described thus: microbe, parasite or virus in culture. The class given is cell-based, Pseudomonas aeruginosa. As to conditions: Pseudomonas aeruginosa; conventional antibiotics; microdilution, Mueller-Hinton broth, 2–5 10^5 CFU/ml, 18 h at 37°C, read visually; at least three repeats (n = 3). In short, it runs like this:
as §1

The test system of experiment [5] is P. aeruginosa PA01-wt. The experiment can be described thus: microbe, parasite or virus in culture. The class given is cell-based, Pseudomonas aeruginosa. As to conditions: microdilution, Mueller-Hinton broth, 18 h at 37°C, read visually; for MIC: Pseudomonas aeruginosa, PA01WT, conventional antibiotics, 2–5 10^5 CFU/ml, at least three repeats (n = 3).
Experiment [6] relates to MDR P. aeruginosa PA 927. The experiment can be described thus: microbe, parasite or virus in culture. The experiment is classed as cell-based, Pseudomonas aeruginosa. As to conditions: Pseudomonas aeruginosa; conventional antibiotics; microdilution, Mueller-Hinton broth, 2–5 10^5 CFU/ml, 18 h at 37°C, read visually; at least three repeats (n = 3). Put shortly:
as §1

The subject of experiment [7] is MDR P. aeruginosa PA 919. Briefly: microbe, parasite or virus in culture. The class given is cell-based, Pseudomonas aeruginosa. As to conditions: microdilution, Mueller-Hinton broth, 18 h at 37°C, read visually; for MIC: Pseudomonas aeruginosa, conventional antibiotics, 2–5 10^5 CFU/ml, at least three repeats (n = 3). Put shortly:
as §1

For experiment [8], the system named is MDR isolate of P. aeruginosa (PA 910). As to conditions: checkerboard, MHb. The protocol:
The checkerboard assay was used to determine the fractional inhibitory concentrations (FICs), following the protocol described in Koneman’s Color Atlas and Textbook of Diagnostic Microbiology ([Winn et al., 2006]). Briefly, combinations of peptides and antibiotics were prepared in 96-well plates (polypropylene, Corning) in a twofold dilution series. After the addition of a log-phase bacterial inoculum of 2–5 × 10^5 CFU/ml, plates were incubated at 37°C for 18 h. The FICs were determined by visual inspection and the effects of the combinations were determined using the FICs. The FIC was computed by adding two partial FIC values, FICA—the MIC of drug A, tested in combination with drug B divided by the MIC of drug A, tested alone and FICB—the MIC of drug B, tested in combination with drug A divided by the MIC of drug B, tested alone [FIC = FICA + FICB = (MICAB/MICA) + (MICBA/MICB), where MICA and MICB are the MICs of drugs A and B alone, respectively, and MICAB and MICBA are the MIC concentrations of the drugs in combination]. Here we use the European Committee for Antimicrobial Susceptibility Testing (EUCAST) definition, which is very similar to the definition provided by [Odds, 2003], except Odds define additive effects when FIC values are between 0.5 and 1 ([European Committee for Antimicrobial Susceptibility Testing [EUCAST] of the European Society of Clinical Microbiology and Infectious Diseases [ESCMID], 2000]; [Odds, 2003]). The combination of peptide (drug A) and antibiotics (drug B) was defined as synergistic if the FIC was ≤ 0.5, indifferent if the FIC was > 0.5 but ≤ 4.0 and antagonistic if the FIC was > 4.0.

Experiment [9] concerns MDR-PA919. The class given is cell-based, Pseudomonas aeruginosa. As to conditions: peptide + polymyxin B; checkerboard; strain comparison (Table 7). As to the method: (§2) The checkerboard assay was used to determine the fractional inhibitory concentrations (FICs), following the protocol described in Koneman’s Color Atlas and Textbook of Diagnostic Microbiology ([Winn et al., 2006]). Briefly, combinations of peptides and antibiotics were prepared in 96-well plates (polypropylene, Corning) in a twofold dilution series. After the addition of a log-phase bacterial inoculum of 2–5 × 10^5 CFU/ml, plates were incubated at 37°C for 18 h. The FICs were determined by visual inspection and the effects of the combinations were determined using the FICs. The FIC was computed by adding two partial FIC values, FICA—the MIC of drug A, tested in combination with drug B divided by the MIC of drug A, tested alone and FICB—the MIC of drug B, tested in combination with drug A divided by the MIC of drug B, tested alone [FIC = FICA + FICB = (MICAB/MICA) + (MICBA/MICB), where MICA and MICB are the MICs of drugs A and B alone, respectively, and MICAB and MICBA are the MIC concentrations of the drugs in combination]. […]

For experiment [10], the system named is MDR-PA253. The experiment is classed as cell-based, Pseudomonas aeruginosa. As to conditions: peptide + polymyxin B; checkerboard; strain comparison (Table 7). The protocol:
as §2

Where [11] appears, read: 18 h, antibiotic alone, as listed in the FIC table, read-out: MIC against PA910 in μM (antibiotics, head of Table 4).
Setting [12] is: conventional antibiotics, microdilution, Mueller-Hinton broth, 2–5 10^5 CFU/ml, 18 h at 37°C, read visually, at least three repeats (n = 3), read-out: MIC PA 910.

Regarding `CNC(C)C1CCC(N)C(OC2C(N)CC(N)C(OC3OCC(C)(O)C(NC)C3O)C2O)O1` (centres unmarked) [Gentamycin], the MIC was 128 µM in experiment [1] (setting [11]); 128 µM (≈ 61.1 µg/mL) in experiment [1] (setting [12]); > 256 µM in experiment [2]; 128 to 256 µM (≈ 61.1 to 122 µg/mL) in [3]; 128 µM (≈ 61.1 µg/mL) in [4]; 1 µM (≈ 0.478 µg/mL) in [5]. The MIC in experiment [6] and in experiment [7] was 128 µM (≈ 61.1 µg/mL) in each case.
As for `C[C@@H](O)[C@H]1C(=O)N2C(C(=O)O)=C(SCCN=CN)C[C@H]12` [Imipenem], the MIC in experiment [1] (setting [11]) is > 128 µM; in [1] (setting [12]), > 128 µM; in experiment [2] it was > 128 µM; in experiment [3], > 128 µM; in experiment [4] it was > 128 µM; in [5], 2 µM (≈ 0.599 µg/mL). For the same compound, the MIC is > 128 µM in experiment [6] and 16 µM (≈ 4.79 µg/mL) in experiment [7].
Take `C[C@@H](O)[C@H]1C(=O)N2C(C(=O)O)=C(S[C@@H]3CN[C@H](C(=O)N(C)C)C3)[C@H](C)[C@H]12` [Meropenem]: the MIC in experiment [1] (setting [11]) was > 128 µM; in experiment [1] (setting [12]), > 128 µM; in experiment [2] it was > 128 µM; in experiment [3], > 128 µM; in experiment [4], > 128 µM; in experiment [5] it was 2 to 4 µM (≈ 0.767 to 1.53 µg/mL). The MIC in [6] and in [7] was > 128 µM throughout.
Consider `CC[C@H](C)[C@H](NC(=O)[C@H](CCCNC(=N)N)NC(=O)[C@H](C)NC(=O)[C@H](CC(C)C)NC(=O)[C@@H](N)CCCNC(=N)N)C(=O)N[C@H](C(=O)N[C@H](C(=O)N[C@H](C(=O)N[C@@H](CCCNC(=N)N)C(=O)N[C@H](C(=O)N[C@@H](CCCNC(=N)N)C(=O)N[C@@H](CCCNC(=N)N)C(N)=O)C(C)C)[C@@H](C)CC)C(C)C)C(C)C` [Peptide R11] (H-RLARIVVIRVRR-NH2), for which the “MIC against PA910 in μM (peptides, Table 4)” value in experiment [1] (peptide alone, as listed in the FIC table) was 64 µM. For the same compound, the “MIC against MDR isolates of PA, PA253” value in experiment [2] (short AMPs, triplicate (n = 3)) was determined as 64 µM. Also, in experiment [5] (short AMPs, triplicate (n = 3)), the “MIC against PA01 wt” value came to 16 µM (≈ 24.1 µg/mL). The “MIC against MDR isolates of PA, PA919” value in experiment [7] (short AMPs, triplicate (n = 3)) amounted to 32 µM. In [8] (confirmation study, peptide + kanamycin, Indopt versions 1/8 MHb, mean of at least three measurements (n = 3), SD in brackets), the “FIC mean (SD), combination with KAN” value was 0.75 (0.17). Also, in [8] (confirmation study, peptide + tetracycline, Indopt versions 1/8 MHb, mean of at least three measurements (n = 3), SD in brackets), the “FIC mean (SD), combination with TET” value was 0.43 (0.12). Besides, the “FIC, combination with AMI” value in experiment [8] (peptide + amikacin, for the Indopt versions 1/8 MHb, 2–5 × 10^5 CFU/ml, 37°C, 18 h, visual, determined once (n = 1)) is recorded as 2. In experiment [8] (peptide + cefepime, for the Indopt versions 1/8 MHb, 2–5 × 10^5 CFU/ml, 37°C, 18 h, visual, determined once (n = 1)), the “FIC, combination with CEF” value is 2. Besides, the “FIC, combination with CET” value in experiment [8] (peptide + ceftazidime, for the Indopt versions 1/8 MHb, 2–5 × 10^5 CFU/ml, 37°C, 18 h, visual, determined once (n = 1)) was 1. The “FIC, combination with CIP” value in [8] (peptide + ciprofloxacin, for the Indopt versions 1/8 MHb, 2–5 × 10^5 CFU/ml, 37°C, 18 h, visual, determined once (n = 1)) stood at 0.53. Also, the “FIC, combination with ERY” value in experiment [8] (peptide + erythromycin, for the Indopt versions 1/8 MHb, 2–5 × 10^5 CFU/ml, 37°C, 18 h, visual, determined once (n = 1)) is reported as 0.53. The “FIC, combination with IMI” value in experiment [8] (peptide + imipenem, for the Indopt versions 1/8 MHb, 2–5 × 10^5 CFU/ml, 37°C, 18 h, visual, determined once (n = 1)) is on record as 0.63. The “FIC, combination with KAN” value in [8] (peptide + kanamycin, for the Indopt versions 1/8 MHb, 2–5 × 10^5 CFU/ml, 37°C, 18 h, visual, determined once (n = 1)) came out at 0.5. For the same compound, the “FIC, combination with MER” value in [8] (peptide + meropenem, for the Indopt versions 1/8 MHb, 2–5 × 10^5 CFU/ml, 37°C, 18 h, visual, determined once (n = 1)) is 0.51. Further, the “FIC, combination with PIP” value in experiment [8] (peptide + piperacillin, for the Indopt versions 1/8 MHb, 2–5 × 10^5 CFU/ml, 37°C, 18 h, visual, determined once (n = 1)) is on record as 1. The “FIC, combination with PMB” value in experiment [8] (peptide + polymyxin B, for the Indopt versions 1/8 MHb, 2–5 × 10^5 CFU/ml, 37°C, 18 h, visual, determined once (n = 1)) was 0.63. Moreover, the “FIC, combination with TET” value in experiment [8] (peptide + tetracycline, for the Indopt versions 1/8 MHb, 2–5 × 10^5 CFU/ml, 37°C, 18 h, visual, determined once (n = 1)) amounted to 0.53. In experiment [8] (peptide + tobramycin, for the Indopt versions 1/8 MHb, 2–5 × 10^5 CFU/ml, 37°C, 18 h, visual, determined once (n = 1)), the “FIC, combination with TOB” value is reported as 2. Further, the “FIC against polymyxin B, MDR-PA919” value in [9] is on record as 0.56. Moreover, the “FIC against polymyxin B, MDR-PA253” value in experiment [10] is recorded as 0.56.
